Assay results taken from patent US8506945B2, “Polymers with structure-defined functions” (Smith & Nephew, PLC., priority 2001, dated 2013).

Legend:
[1] = tested on: ovine meniscal chondrocytes P3; assay: Cytotoxicity on chondrocyte culture, PicoGreen DNA assay; assay type: cell-based; conditions: 48 h incubation, DNA by PicoGreen assay
Description: The high chemical reactivity of protease inhibitors represents toxicological problems both in vitro and potentially in vivo. […] DNA concentrations were obtained using a PicoGreen assay.

Thrombin = Thrombin (Homo sapiens, UniProt P00734); assay: biochemical
Elastase = Elastase (1.2 μg/ml), 20° C., 0.2M TRIS buffer

SMILES: NCCc1ccc(S(=O)(=O)F)cc1 [AEBSF, 4-(2-aminoethyl)benzenesulphonylfluoride]
- concentration at which significant toxicity deviation from the vehicle alone begins [1]: 8000 ng/mL
- IC50 (Thrombin): 712 µM
- IC50 (Elastase): 312 µM
